Data: PubChem BioAssay (NCI)
“And” between values parts separate entries of the source, which are not always exact repeats. Identical values can stand only once.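 A five-concentration, 48-hour dose response in 96-well plates underlies each endpoint, interpolated linearly between surrounding concentrations. At the GI50, growth is halved. The concentration for full growth arrest is given as TGI.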

Legend:
Assay in all cases: NCI anticancer screen, dose series, 48 h
[1] = tested on: 786-0 renal
[2] = tested on: DU-145 prostate
[3] = tested on: HCT-116 colon
[4] = tested on: IGROV1 ovarian
[5] = tested on: MDA-MB-231 breast
[6] = tested on: NCI-H226 lung
[7] = tested on: OVCAR-8 ovarian
[8] = tested on: RXF 393 renal
[9] = tested on: SK-MEL-5 melanoma
[10] = tested on: SW-620 colon

SMILES | GI50 [1] | TGI [1] | GI50 [2] | TGI [2] [µM] | GI50 [3] | TGI [3] [µM] | GI50 [4] | TGI [4] | GI50 [5] | TGI [5] [µM] | GI50 [6] | TGI [6] [µM] | GI50 [7] | TGI [7] [µM] | GI50 [8] | TGI [8] | GI50 [9] | TGI [9] | GI50 [10] | TGI [10] [µM]
C=C1C(=O)O[C@H]2[C@H]1CC/C(COC(=O)NCc1c[nH]c3ccc(OC)cc13)=C\CC[C@@]1(C)O[C@@H]21 | 0.445 µM | 1.8 µM | 1.35 µM | 2.83 | 0.268 µM | 1.22 | 2.55 µM | 7.38 µM | 1.92 µM | 4.3 | 14.9 µM | 35.5 | 1.61 µM | 5.53 | 1.18 µM | 2.52 µM | 1.38 µM | 2.69 µM | 0.45 µM | 1.92
COc1ccccc1/C=C1\CCC(CN(C)C)C1=O (stereo not drawn) | – | 5.08 µM | – | 47.1 | – | 18.1 | – | 32.7 µM | – | 5.78 | – | 25 | – | 26.3 | – | 9.13 µM | – | 30.4 µM | – | 6
Oc1c(Cl)cc(C(c2cc(Cl)c(O)c(Cl)c2)C(c2cc(Cl)c(O)c(Cl)c2)c2cc(Cl)c(O)c(Cl)c2)cc1Cl | 3.49 µM | 16.7 µM | 3.63 µM | 14.1 | 2.36 µM | 10.8 | 5.29 µM | 16.8 µM | 6.22 µM | 26.4 | 25.7 µM | – | 4.11 µM | 22.3 | 1.34 µM | 4.11 µM | 2.89 µM | 14.8 µM | 6.6 µM | 23
COc1cccc(C2=NN(C(C)=O)C(c3cc(OC)c(OC)c(OC)c3)C2)c1 (stereo not drawn) | 2.63 µM | > 20.6 µM | 2.87 µM | > 100 | 2.59 µM | > 100 | 4.08 µM | > 72.1 µM | 8.82 µM | > 100 | > 100 µM | > 100 | 5.1 µM | > 100 | 4.02 µM | > 100 µM | 0.829 µM | 10.2 µM | 0.668 µM | > 100
O=Cc1ncc(-c2ccc(C(F)(F)F)cc2)c(NC2CCCCCC2)n1 | > 10 µM | > 10 µM | > 10 µM | > 10 | > 10 µM | > 10 | > 10 µM | > 10 µM | > 10 µM | > 10 | > 10 µM | > 10 | > 10 µM | > 10 | > 10 µM | > 10 µM | > 10 µM | > 10 µM | > 10 µM | > 10
Oc1ccc(Cl)cc1Cc1cc(Cl)cc(Cc2cc(Cl)ccc2O)c1O | – | 11.3 µM | – | 13 | – | 9.33 | – | 13.5 µM | – | 8.83 | – | 7.07 | – | 16.8 | – | 8.86 µM | – | 2.56 µM | – | 13.5
CN(C)c1cc2c(Nc3ccc4nc(Cc5ccccc5)[nH]c4c3)ncnc2cn1 | 12.5 µM | > 20.3 µM | 12.1 µM | > 25 | 13.1 µM | > 25 | 9.21 µM | > 25 µM | > 17.4 µM | > 25 | > 18 µM | > 25 | > 17.4 µM | > 25 | 12 µM | > 25 µM | 8.99 µM | > 16 µM | > 21.5 µM | > 25
S=C(Nc1ccc(-c2nc3ccccc3s2)cc1)Nc1ccccn1 | 24.7 µM | 70.4 µM | 28.5 µM | > 100 | 21.5 µM | 55.5 | 29.8 µM | > 78.1 µM | 16.6 µM | 48.3 | 26.4 µM | > 76.2 | 32.6 µM | > 73.9 | 33.1 µM | > 74.5 µM | 17.2 µM | 36.2 µM | 40.1 µM | > 100
COc1c(Nc2ncc(Cl)c(N[C@@H]3[C@H]4C=CC(C4)[C@@H]3C(N)=O)n2)ccc2c1CC[C@@H](N1CCOCC1)CC2 | 1.97 µM | 12.2 µM | 4.88 µM | 27.2 | 2.52 µM | 10.3 | 5.3 µM | 35.8 µM | 2.24 µM | 9.36 | 3.81 µM | 30.2 | 6.59 µM | 29.6 | 1.64 µM | 6.54 µM | 5.81 µM | 19.2 µM | 2.51 µM | 10.2
O=c1oc2c(Br)c(O)c(Br)cc2c2ccccc12 | – | > 100 µM | – | 70.8 | – | 92.6 | – | > 100 µM | – | 66.1 | – | 80.5 | – | > 100 | – | > 100 µM | – | 50.2 µM | – | > 100
CCNC(=O)Nc1ccc(-c2nc3c(c(N4CCOC[C@@H]4C)n2)CCN(C2COC2)C3)cc1 | 0.386 µM and 0.278 µM | 29.1 µM and > 10 µM | 0.562 µM and 0.435 µM | > 100 | 1.19 µM and 0.78 µM | > 100 | 0.115 µM and 0.071 µM | 5.38 µM and 0.751 µM | 0.392 µM and 0.267 µM | > 48.2 | 0.247 µM and 0.119 µM | – | 0.46 µM and 0.534 µM | > 100 | 0.137 µM and 0.125 µM | 0.727 µM and 0.857 µM | 0.317 µM and 0.331 µM | 8.52 µM and 2.56 µM | 0.793 µM and 0.61 µM | > 100
CCc1ccc(/C(C#N)=C/C=C/c2ccccc2)cc1 | 11.1 µM | > 100 µM | 4.22 µM | > 48.4 | 1.93 µM | > 100 | 7.55 µM | > 100 µM | 5.84 µM | > 76.7 | 17.2 µM | > 100 | 5 µM | > 100 | 1.29 µM | 4.09 µM | 1.09 µM | 26.2 µM | 1.22 µM | > 100
NC(=O)Cc1ccccc1Oc1nccc(-c2c(-c3ccc(F)cc3)ncn2C2CCNCC2)n1 | > 25 µM | > 25 µM | > 25 µM | > 25 | > 25 µM | > 25 | > 25 µM | > 25 µM | > 25 µM | > 25 | > 25 µM | > 25 | > 25 µM | > 25 | > 25 µM | > 25 µM | > 25 µM | > 25 µM | > 25 µM | > 25
Cc1oncc1C(=O)Nc1ccc(C(F)(F)F)cc1 | 54.5 µM | > 100 µM | 56.1 µM | > 100 | 15.6 µM | > 100 | 26.7 µM | > 100 µM | 25.9 µM | > 100 | 35.1 µM | > 100 | 17.6 µM | > 100 | 23.9 µM | > 100 µM | 29.3 µM | > 100 µM | 92.5 µM | > 100
O=C1OCC2=C1C(c1cccc([N+](=O)[O-])c1)c1cc3c(cc1N2CCO)CCC3 (stereo not drawn) | 0.0822 µM | 16.8 µM | 0.19 µM | > 24.5 | 0.148 µM | 16 | 0.255 µM | > 50 µM | 0.271 µM | > 19.3 | 1.77 µM | 49.4 | 0.244 µM | > 50 | 0.123 µM | > 50 µM | 0.127 µM | 3.56 µM | 0.179 µM | > 50
COc1cc2c3c(n(CCCN=[N+]=[N-])c(=O)c2cc1OC)-c1ccc(N)cc1C3=O | 0.16 µM | 0.431 µM | 0.117 µM | 1.42 | 0.097 µM | 0.521 | 0.153 µM | 0.637 µM | 0.625 µM | 2.18 | 0.249 µM | 1.16 | 0.436 µM | 1.9 | 0.189 µM | 0.468 µM | 0.0784 µM | 0.223 µM | 0.203 µM | 3.69
Clc1cccc(Cn2cc(Cc3cn(Cc4cccc(Cl)c4)c4ccccc34)c3ccccc32)c1 | > 100 µM | > 100 µM | > 100 µM | > 100 | > 100 µM | > 100 | 32 µM | > 100 µM | 52 µM | > 100 | 10.1 µM | 59 | > 100 µM | > 100 | > 100 µM | > 100 µM | > 100 µM | > 100 µM | > 100 µM | > 100
O=C(Nc1cccnc1)c1cccs1 | 6.77 µM | > 100 µM | 4.6 µM | > 100 | 1.89 µM | > 100 | > 100 µM | > 100 µM | 81.3 µM | > 100 | 41 µM | > 100 | 8.94 µM | > 100 | 7.36 µM | > 100 µM | 53 µM | > 100 µM | 2.09 µM | > 100
